Reference: PubChem BioAssay (NCI)
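Protocol summary: plate cells (96-well), add compound at 5 concentrations, incubate 48 h, interpolate endpoints linearly. Abbreviation: GI50, concentration required for 50% inhibition of growth. TGI: concentration producing complete growth inhibition.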 Where a SMILES comes first, the peptide text is derived from it. [ ]: non-standard residue; d: D form. The star is where a group is joined. mTyr = N[CH](Cc1cccc(O)c1)C(=O)O; Cbz = O=C(OCc1ccccc1)*; OBn = c1ccc(CO*)cc1

Columns and labels:
Assay in all cases: NCI-60 cell line screen, 48 h
[1] = test system: A549 NSCLC
[2] = test system: SK-MEL-2 melanoma
[3] = test system: TK-10 renal
[4] = test system: NCI-H460 lung
[5] = test system: SF-268 CNS
[6] = test system: HCT-116 colon
[7] = test system: 786-0 renal
[8] = test system: SNB-75 CNS
[9] = test system: UO-31 renal
[10] = test system: LOX IMVI melanoma
[11] = test system: NCI-H23 lung
[12] = test system: SF-539 CNS
[13] = test system: MCF7 breast
[14] = test system: HS 578T breast
[15] = test system: SR leukemia

Row | SMILES | TGI [1] | TGI [2] | TGI [3] | TGI [4] | TGI [5] | TGI [6] | TGI [7] | TGI [8] | TGI [9] | TGI [10] | TGI [11] | TGI [12] | TGI [13] | TGI [14] | TGI [15] | GI50 [1] | GI50 [2] | GI50 [6] | GI50 [11] | GI50 [12]
1 | Cc1ccc(CC(C)N)cc1 (stereo unspecified) | > 100 µM | > 100 µM | > 100 µM | > 100 µM | > 100 µM | > 100 µM | > 100 µM | > 100 µM | > 100 µM | > 100 µM | > 100 µM | > 100 µM | – | – | – | – | – | – | – | –
2 | O=[As](O)(O)c1ccc(N=Nc2ccc(O)cc2)cc1 | > 100 µM | > 100 µM | > 100 µM | > 100 µM | > 100 µM | > 100 µM | > 100 µM | > 100 µM | > 100 µM | > 100 µM | > 100 µM | – | > 100 µM | > 100 µM | – | – | – | – | – | –
3 | CC(C)(C)OC(=O)NCCC1CN(C(=O)c2ccccc2)c2ccccc21 (stereo unspecified) | > 100 µM | 91.2 µM | > 100 µM | 56.3 µM | > 100 µM | 43 µM | > 100 µM | 75.2 µM | 76.1 µM | – | 88.8 µM | – | 85.5 µM | > 100 µM | > 100 µM | – | – | – | – | –
4 | COc1ccc(CSc2ccccc2Cn2cccc2)cc1OC | > 100 µM | – | > 100 µM | > 100 µM | > 100 µM | > 100 µM | > 100 µM | > 100 µM | > 100 µM | > 100 µM | > 100 µM | > 100 µM | > 100 µM | – | > 100 µM | – | – | – | – | –
5 | CC(C)(C)c1cc(C2COC(c3cc(C(C)(C)C)c(O)c(C(C)(C)C)c3)CO2)cc(C(C)(C)C)c1O (stereo unspecified) | > 100 µM | > 100 µM | > 100 µM | – | > 100 µM | > 100 µM | > 100 µM | > 100 µM | > 100 µM | > 100 µM | > 100 µM | > 100 µM | > 100 µM | > 100 µM | – | – | – | – | – | –
6 | COC(=O)C(Cc1cccc(O)c1)NC(=O)C(CC(=O)OCc1ccccc1)NC(=O)OCc1ccccc1 (stereo unspecified) (Cbz-Asp(OBn)-[mTyr]-OMe; configuration not given here) | > 100 µM | > 100 µM | > 100 µM | 35.6 µM | – | > 100 µM | > 100 µM | > 100 µM | > 100 µM | – | > 100 µM | – | > 100 µM | > 100 µM | > 100 µM | – | – | – | – | –
7 | CCOc1ccc(-n2nnc3c(N)nc(N)nc32)cc1 | > 100 µM | > 100 µM | > 100 µM | > 100 µM | – | > 100 µM | > 100 µM | > 100 µM | – | > 100 µM | > 100 µM | > 100 µM | > 100 µM | – | > 100 µM | – | – | – | – | –
8 | c1ccc(CSCCc2ccncc2)cc1 | > 100 µM | > 100 µM | > 100 µM | > 100 µM | > 100 µM | > 100 µM | > 100 µM | – | > 100 µM | > 100 µM | > 100 µM | > 100 µM | > 100 µM | > 100 µM | – | – | – | – | – | –
9 | COC(=O)CC1NC(=O)C1C1(C)OCCO1 (stereo unspecified) | > 100 µM | > 100 µM | > 100 µM | > 100 µM | > 100 µM | > 100 µM | > 100 µM | 97.7 µM | > 100 µM | > 100 µM | > 100 µM | > 100 µM | – | – | > 100 µM | – | – | – | – | –
10 | O=C1NC(=S)N(c2ccccc2)C1=O | > 100 µM | > 100 µM | > 100 µM | > 100 µM | > 100 µM | > 100 µM | > 100 µM | > 100 µM | > 100 µM | > 100 µM | > 100 µM | > 100 µM | – | > 100 µM | > 100 µM | – | – | – | – | –
11 | COc1cccc(NC(=O)C(C#N)=C(SC)SC)c1 | > 100 µM | > 100 µM | > 100 µM | > 100 µM | > 100 µM | > 100 µM | > 100 µM | > 100 µM | – | > 100 µM | – | > 100 µM | > 100 µM | > 100 µM | – | – | – | – | – | –
12 | O=C(N/N=C/c1cc(Cl)cc(Cl)c1O)c1ccccc1O | 15.8 µM | 6.87 µM | 70.3 µM | 18.8 µM | 30.8 µM | 14.5 µM | – | 22.5 µM | 29.5 µM | 24.9 µM | – | 6.69 µM | – | – | > 100 µM | 1.45 µM | 1.39 µM | 2.48 µM | 2.69 µM | 1.75 µM
13 | CN(C)CCCN1c2ccccc2CCc2ccc([N+](=O)[O-])cc21 | > 100 µM | 43.9 µM | 41.8 µM | 42.3 µM | > 100 µM | > 100 µM | > 100 µM | – | 76 µM | 31.5 µM | > 100 µM | – | 34.1 µM | > 100 µM | > 100 µM | – | – | – | – | –
14 | CCC(c1c[nH]c2ccc(Br)cc12)c1c[nH]c2ccc(Br)cc12 | 15 µM | 23.1 µM | 22.9 µM | 6.82 µM | 20.7 µM | 15.1 µM | 11.2 µM | – | 18.7 µM | 6.66 µM | 11 µM | 28.6 µM | 15.5 µM | 27 µM | – | – | – | – | – | –
15 | COc1ccc(/C=C2\CN(C)C/C(=C\c3ccc(OC)c(OC)c3OC)C2=O)c(OC)c1OC | 1.07 µM | 2.4 µM | 2.33 µM | 0.435 µM | 2.01 µM | 0.196 µM | 0.806 µM | 2.64 µM | – | 0.319 µM | – | 0.311 µM | – | > 100 µM | 0.0854 µM | – | – | – | – | –
16 | CC1OC(OC2C(OC(=O)[C@@H]3CC(C)(C)C[C@H]4C5=CC[C@@H]6[C@@]7(C)C[C@H](O)[C@H](OC8OC(CO)C(O)C(O)C8O)[C@@](C)(CO)[C@@H]7[C@H](O)C[C@@]6(C)[C@]5(C)CC[C@@]34C)OCC(O)C2O)C(O)C(O)C1O (stereo partly specified) | – | > 7.5 µM | > 7.5 µM | > 7.5 µM | > 7.5 µM | > 7.5 µM | > 7.5 µM | > 7.5 µM | > 7.5 µM | > 7.5 µM | > 7.5 µM | > 7.5 µM | > 7.5 µM | > 7.5 µM | – | – | – | – | – | –
17 | CCOC(=O)CSc1nnc(C(Sc2nc(-c3ccccc3)c(-c3ccccc3)[nH]2)C(C)C)n1-c1ccccc1 (stereo unspecified) | > 31.6 µM | 22.9 µM | > 31.6 µM | > 31.6 µM | > 31.6 µM | > 31.6 µM | > 31.6 µM | > 10 µM | > 31.6 µM | 19.9 µM | > 10 µM | 18.8 µM | > 100 µM | – | > 89.6 µM | – | – | – | – | –
